For test [1], the target named is T1, human CK1Epsilon (Cos 7 cells cotransfected with mouse Per3-GFP) (Homo sapiens, UniProt P49674).
T1 construct: His tag of the vector pcDNA4/hisA (only the vector name is printed); expressed in transfected cells; host or cells: Cos 7 cells
Description: CK1 WCA HCS nuclear translocation assay (CK1ε). The format is cell-based. The settings on record: inhibition of mPer3-GFP translocation to the nucleus, overnight exposure, read-out: CK1 ε WCA EC50. How it is done: (§1) CK1 WCA HCS Nuclear Translocation Assay.
(§2) Cos 7 cells were maintained at 37° C. in 5% CO2 in Dulbecco's Modified Eagle Medium (Gibco 11995) supplemented with 10% fetal bovine serum. Log-phase cells were dislodged with 5 min treatment of TrypLE Express (Gibco 12605) and viable cell count was determined with Cedex cell counter. Cells were diluted in DMEM medium to a density of 1.5e5 viable cells/mL in ⅔ of the final volume of final transfected cell mix. Cells were cotransfected with two plasmid DNAs, mouse Per3-GFP (green fluorescent protein) in pd2EGFP-N1 vector and human CKI in pcDNA4/hisA vector (for CK1Epsilon at a ratio of 1:5 respectively; for CK1δ at a ratio of 1:11 respectively), using Lipofectamine 2000 reagent (Invitrogen) according to the manufacturer's recommendations. The transfection mix contained approximately 0.83 μg/mL of DNA and 6 μL/mL of Lipofectamine 2000, in a total of ⅓ of the final transfection volume in Opti-MEM I medium (Invitrogen). After 20 min at rt, the cell mix was combined with the DNA transfection mix, per manufacturer instructions. 50 μL of the transfected cell suspension was dispensed per well by multidrop dispenser into Greiner 384-well Cellcoat (PDL) plates (Greiner #781946).
(§3) Compounds were solubilized in 100% DMSO, diluted with Opti-MEM I to a 4× concentration before addition to plated cells. After overnight exposure at 37° C. in a CO2 incubator, cells were fixed by the addition of 12% paraformaldehyde (Electron Microscopy Sciences, Hatfield, Pa.) in phosphate-buffered saline (PBS) with 20% sucrose to a final concentration of 4%, and then the cells were incubated for 30 min at rt. Fixative was removed, and cells were washed with PBS and then stained with 0.4 μg/ml Hoechst dye (Invitrogen) in blocking buffer containing 4% goat serum (Vector Labs s-1000) and 0.1% TritonX (Sigma T8787) for 1 h. Cells were washed again with PBS and stored at 4° C. in PBS or scanned immediately with the Cellomics ArrayScan VTI. CKIδ dependent nuclear localization of the GFP-tagged mPer3 protein was quantitated using the Cellomics ArrayScan VTI system utilizing the Cytoplasm to Nucleus translocation bioapplication to calculate the Nuclear-Cytoplasmic Intensity difference. Inhibitors of CK1 δ/ε were tested across a dose response curve to evaluate their ability to inhibit mPer3-GFP translocation to the nucleus. Cells with a total intensity of mPER3:GFP expression equal to or greater than 20,000 are included in analysis.

Test [2] deals with T2, human CK1δ (Cos 7 cells cotransfected with mouse Per3-GFP) (Homo sapiens, UniProt P48730).
T2 construct: His tag of the vector pcDNA4/hisA (only the vector name is printed); expressed in transfected cells; host or cells: Cos 7 cells
The experiment in a line: CK1 WCA HCS nuclear translocation assay (CK1δ). The format is cell-based. The settings on record: inhibition of mPer3-GFP translocation to the nucleus, overnight exposure, read-out: CK1 δ WCA EC50. How it is done:
as §1, §2, §3

A further test deals with CKI ε wild type (Homo sapiens, UniProt P49674). Description: CK1ε kinase assay (Kinase-Glo). Format: biochemical. As to conditions: 10 μM ATP, 2.5 nM CKI ε, 70 min at 25° C.; read-out: CK1 ε:IC50. How it is done: The CK1ε kinase assay was performed in a 40-μl final volume in buffer containing 50 mM Tris, pH 7.5, 10 mM MgCl2, 1 mM dithiothreitol, 100 μg/mL BSA with 10 μM ATP, 2.5 nM CKI ε wild type, and 42 μM peptide substrate PLSRTLp[…] (Flotow et al., 1990) in the presence of 1 μl of CKI ε inhibitor or 4% DMSO. The reaction was incubated for 70 min at 25° C.; detection was carried out as described for the Kinase-Glo Assay (Promega). Luminescent output was measured on the Perkin Elmer Envision plate reader (PerkinElmer, Waltham, Mass.).

The target of another test is CKIδ wild type (Homo sapiens, UniProt P48730). The experiment in a line: CK1δ kinase assay (Kinase-Glo). The settings on record: 10 μM ATP, 2 nM CKIδ, 85 min at 25° C.; read-out: CK1 δ IC50. Format: biochemical. How it is done: The CK1δ kinase assay was performed in a 40 μl final volume in buffer containing 50 mM Tris, pH 7.5, 10 mM MgCl2, 1 mM dithiothreitol, 100 μg/mL BSA with 10 μM ATP, 2 nM CKIδ wild type, and 42 μM peptide substrate PLSRTLp[…] (Flotow et al., 1990) in the presence of 1 μl of CKIδ inhibitor or 4% DMSO. The reaction was incubated for 85 min at 25° C.; detection was carried out as described for the Kinase-Glo Assay (Promega). Luminescent output was measured on the Perkin Elmer Envision plate reader (PerkinElmer, Waltham, Mass.).
On the technique in general: Kinase-Glo measures the ATP left after a reaction by luminescence.

As usually defined, the EC50 is the midpoint of the concentration-response curve. As a reminder, the IC50 is the concentration that gives 50% inhibition.

T1 sequence (P49674 whole entry): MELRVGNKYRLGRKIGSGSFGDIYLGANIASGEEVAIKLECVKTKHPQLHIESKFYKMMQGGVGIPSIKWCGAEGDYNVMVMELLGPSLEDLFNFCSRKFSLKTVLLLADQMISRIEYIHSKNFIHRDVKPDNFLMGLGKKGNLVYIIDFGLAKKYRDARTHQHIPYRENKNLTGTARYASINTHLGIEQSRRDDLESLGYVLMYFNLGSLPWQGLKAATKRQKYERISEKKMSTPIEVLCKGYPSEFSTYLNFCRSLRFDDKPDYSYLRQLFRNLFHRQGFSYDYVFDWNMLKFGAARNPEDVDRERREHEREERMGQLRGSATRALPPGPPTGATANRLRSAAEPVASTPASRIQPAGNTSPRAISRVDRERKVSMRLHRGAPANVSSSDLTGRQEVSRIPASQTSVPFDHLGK
Chain of CKI ε wild type (P49674 whole entry): as above
Chain of CKIδ wild type (P48730 whole entry): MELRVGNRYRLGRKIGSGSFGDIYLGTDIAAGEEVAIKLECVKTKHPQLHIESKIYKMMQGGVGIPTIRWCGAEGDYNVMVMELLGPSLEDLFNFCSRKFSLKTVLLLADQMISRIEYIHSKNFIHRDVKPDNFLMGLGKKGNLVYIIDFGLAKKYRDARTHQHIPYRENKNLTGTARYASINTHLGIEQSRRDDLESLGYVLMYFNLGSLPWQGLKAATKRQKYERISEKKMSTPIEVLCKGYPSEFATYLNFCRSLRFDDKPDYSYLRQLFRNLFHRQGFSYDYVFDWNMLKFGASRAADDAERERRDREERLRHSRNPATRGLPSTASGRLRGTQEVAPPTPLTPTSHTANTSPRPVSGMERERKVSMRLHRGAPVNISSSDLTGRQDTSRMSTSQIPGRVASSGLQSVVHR
T2 sequence (P48730 whole entry): as above

As for `CC1CNCc2nccc(-c3cn(C)nc3-c3ccc(F)cc3)c2O1` (racemic) [Example 8, 9-[3-(4-fluorophenyl)-1-methyl-1H-pyrazol-4-yl]-2-methyl-2,3,4,5-tetrahydropyrido[2,3-f][1,4]oxazepine], the EC50 turned out to be 217 nM in test [1] and 47 nM in test [2].

On to `Cn1cc(-c2ccnc3c2C(=O)OC3)c(-c2ccc(F)cc2)n1` [Example 1, 4-(3-(4-fluorophenyl)-1-methyl-1H-pyrazol-4-yl)furo[3,4-b]pyridin-5(7H)-one], for which the IC50 at CKI ε wild type stood at 26.9 nM; on CKIδ wild type, 7.91 nM. Besides, the figures for the EC50 in test [1] and in test [2] were 355 nM and 59.8 nM, respectively.

For the compound `CN1Cc2nccc(-c3cn(C)nc3-c3ccc(Cl)cc3)c2C1=O` [Example 3, 4-[3-(4-chlorophenyl)-1-methyl-1H-pyrazol-4-yl]-6-methyl-6,7-dihydro-5H-pyrrolo[3,4-b]pyridin-5-one], the EC50 turned out to be 343 nM in test [1] and 78.2 nM in test [2].

`Cn1cc(-c2ccnc3c2C(=O)NC3)c(-c2ccc(F)cc2)n1` [Example 4, 4-[3-(4-fluorophenyl)-1-methyl-1H-pyrazol-4-yl]-6,7-dihydro-5H-pyrrolo[3,4-b]pyridin-5-one]: the values for the IC50 on CKI ε wild type and on CKIδ wild type were 72.7 nM and 13.9 nM, respectively. Besides, the 50% effective concentration (EC50) in test [1] is 684 nM; in test [2] it was 122 nM.

On to `Cn1cc(-c2ccnc3c2OCCNC3)c(-c2ccc(F)cc2)n1` [Example 7, 9-[3-(4-fluorophenyl)-1-methyl-1H-pyrazol-4-yl]-2,3,4,5-tetrahydropyrido[2,3-f][1,4]oxazepine], for which the IC50 at CKI ε wild type is 27.6 nM; on CKIδ wild type it was 6.01 nM. Besides, the figures for the EC50 in test [1] and in test [2] were 291 nM and 39.2 nM, respectively.

Turning to `CC1COc2c(-c3cn(C)nc3-c3ccc(F)cc3)ccnc2CN1` (stereo not drawn) [Example 9, 9-[3-(4-fluorophenyl)-1-methyl-1H-pyrazol-4-yl]-3-methyl-2,3,4,5-tetrahydropyrido[2,3-f][1,4]oxazepine], the concentration for a half-maximal effect (EC50) is 834 nM in test [1] and 199 nM in test [2].

Take `CCS(=O)(=O)N1Cc2nccc(-c3cn(C)nc3-c3ccc(F)cc3)c2C1` [Example 11, 6-(ethylsulfonyl)-4-[3-(4-fluorophenyl)-1-methyl-1H-pyrazol-4-yl]-6,7-dihydro-5H-pyrrolo[3,4-b]pyridine]: the EC50 amounted to 668 nM in test [1] and 103 nM in test [2].

As to `Cn1cc(-c2ccnc3c2CN(S(=O)(=O)C2CC2)C3)c(-c2ccc(F)cc2)n1` [Example 12, 6-(cyclopropylsulfonyl)-4-[3-(4-fluorophenyl)-1-methyl-1H-pyrazol-4-yl]-6,7-dihydro-5H-pyrrolo[3,4-b]pyridine], the figures for the EC50 in test [1] and in test [2] were 882 nM and 202 nM, respectively.

Regarding `CCC(=O)N1Cc2nccc(-c3cn(C)nc3-c3ccc(F)cc3)c2C1` [Example 13, 4-[3-(4-fluorophenyl)-1-methyl-1H-pyrazol-4-yl]-6-propionyl-6,7-dihydro-5H-pyrrolo[3,4-b]pyridine], the values for the EC50 in test [1] and in test [2] were 124 nM and 16.2 nM, respectively.

On to `CC(=O)N1Cc2nccc(-c3cn(C)nc3-c3ccc(F)cc3)c2C1` [Example 14, 6-acetyl-4-[3-(4-fluorophenyl)-1-methyl-1H-pyrazol-4-yl]-6,7-dihydro-5H-pyrrolo[3,4-b]pyridine], for which the EC50 stood at 150 nM in test [1] and 40.2 nM in test [2].

For `Cn1cc(-c2ccnc3c2CN(C(=O)CC2CC2)C3)c(-c2ccc(F)cc2)n1` [Example 15, 6-(cyclopropylacetyl)-4-[3-(4-fluorophenyl)-1-methyl-1H-pyrazol-4-yl]-6,7-dihydro-5H-pyrrolo[3,4-b]pyridine], the EC50 in test [1] stood at 75.4 nM; in test [2] it was 12.6 nM.

In the case of `Cn1cc(-c2ccnc3c2CN(C(=O)C2CCOC2)C3)c(-c2ccc(F)cc2)n1` (stereo not drawn) [Example 16, 4-[3-(4-fluorophenyl)-1-methyl-1H-pyrazol-4-yl]-6-(tetrahydrofuran-3-ylcarbonyl)-6,7-dihydro-5H-pyrrolo[3,4-b]pyridine], the EC50 in test [1] is 218 nM; in test [2], 38.1 nM.

For the compound `COCC(=O)N1Cc2nccc(-c3cn(C)nc3-c3ccc(F)cc3)c2C1` [Example 17, 4-[3-(4-fluorophenyl)-1-methyl-1H-pyrazol-4-yl]-6-(methoxyacetyl)-6,7-dihydro-5H-pyrrolo[3,4-b]pyridine], the EC50 in test [1] is 210 nM; in test [2], 47.5 nM.

Take `CC(C)C(=O)N1Cc2nccc(-c3cn(C)nc3-c3ccc(F)cc3)c2C1` [Example 18, 4-[3-(4-fluorophenyl)-1-methyl-1H-pyrazol-4-yl]-6-isobutyryl-6,7-dihydro-5H-pyrrolo[3,4-b]pyridine]: the EC50 in test [1] was 195 nM; in test [2], 39.5 nM.

As for `Cn1cc(-c2ccnc3c2CN(C(=O)C2CCOCC2)C3)c(-c2ccc(F)cc2)n1` [Example 19, 4-[3-(4-fluorophenyl)-1-methyl-1H-pyrazol-4-yl]-6-(tetrahydro-2H-pyran-4-ylcarbonyl)-6,7-dihydro-5H-pyrrolo[3,4-b]pyridine], the EC50 amounted to 566 nM in test [1] and 54.8 nM in test [2].

On to `Cn1cc(-c2ccnc3c2CN(C(=O)Cc2ncccn2)C3)c(-c2ccc(F)cc2)n1` [Example 20, 4-[3-(4-fluorophenyl)-1-methyl-1H-pyrazol-4-yl]-6-(pyrimidin-2-ylacetyl)-6,7-dihydro-5H-pyrrolo[3,4-b]pyridine], for which the results for the EC50 in test [1] and in test [2] were 361 nM and 84.7 nM, respectively.

In the case of `Cn1cc(-c2ccnc3c2CN(C(=O)C2CC2)C3)c(-c2ccc(F)cc2)n1` [Example 21, 6-(cyclopropylcarbonyl)-4-[3-(4-fluorophenyl)-1-methyl-1H-pyrazol-4-yl]-6,7-dihydro-5H-pyrrolo[3,4-b]pyridine], the concentration for a half-maximal effect (EC50) in test [1] was found to be 82.3 nM; in test [2], 18.3 nM.

As for `Cn1cc(-c2ccnc3c2CN(C(=O)OCc2ccccc2)C3)c(-c2ccc(F)cc2)n1` [Example 22, benzyl 4-[3-(4-fluorophenyl)-1-methyl-1H-pyrazol-4-yl]-5,7-dihydro-6H-pyrrolo[3,4-b]pyridine-6-carboxylate], the EC50 in test [1] turned out to be 275 nM; in test [2] it was 51.6 nM.

Consider `CCOCCCN1Cc2nccc(-c3cn(C)nc3-c3ccc(F)cc3)c2C1=O` [Example 51, 6-(3-ethoxypropyl)-4-[3-(4-fluorophenyl)-1-methyl-1H-pyrazol-4-yl]-6,7-dihydro-5H-pyrrolo[3,4-b]pyridin-5-one], for which the results for the IC50 at CKI ε wild type and on CKIδ wild type were 63.8 nM and 14.6 nM, respectively. Besides, the EC50 in test [2] is 129 nM.

Regarding `Cc1ccc(CN2Cc3nccc(-c4cn(C)nc4-c4ccc(F)cc4)c3C2=O)cn1` [Example 52, 4-[3-(4-fluorophenyl)-1-methyl-1H-pyrazol-4-yl]-6-[(6-methylpyridin-3-yl)methyl]-6,7-dihydro-5H-pyrrolo[3,4-b]pyridin-5-one], the IC50 at CKI ε wild type is 127 nM; at CKIδ wild type, 19 nM. Besides, in test [2], the EC50 was 60.7 nM.

Values taken from US8536164B2, “Fused pyridine compounds as casein kinase inhibitors” (Pfizer Inc., priority 2010, dated 2013).
